From patent publication US6613797B2, “Xanthone analogs for treating infectious diseases and complexation of heme and porphyrins” (Interlab, Inc., priority 1999, dated 2003)
Where two headings read alike, the source gives them in different places.

Tests used:
[1] = tested on: Plasmodium falciparum D6 strain; experiment: in vitro anti-malarial activity, [3H]-ethanolamine incorporation method; format: cell-based
Experimental: Cultures were maintained at 37° C. in a gas mixture of 5% oxygen, 5% CO2, and 90% nitrogen.
[^3H]-ethanolamine was obtained from American Radiolabeled Chemicals, Inc., St. Louis, Mo. Experiments were conducted in 96 well plates in a total volume of 200 μl at a final red blood cell concentration of 2% (v/v). An initial parasitemia of 0.2 to 0.5% was attained by addition of normal uninfected red cells. Radiolabeled ethanolamine was added after 48 hours of incubation and the experiment was terminated after 72 hours by collecting the cells onto glass fiber filters with an automated multiwell harvester.
Stock solutions of the various Formula X1 compounds were dissolved in DMSO at a concentration of 1 mM and diluted in complete medium (including 10% human serum) to provide 10X stock concentrations in the range of 1 to 10,000 nM.

[2] = in vitro heme aggregation (polymerization) assay; format: biochemical; settings: for inhibitory activity in heme polymerization assay: result in words
Experimental: Heme polymerization was carried out in 0.02 M phosphate buffer, pH 5.2 at 37° C. in the absence of protenis. A 10 mM stock solution of hemin chloride in 0.1 M NaOH wa prepared freshly and incuated at 37° C. for at least 1 hour to effect complete dissolution. Xanthones were dissolved in dimethylformamide at 10 mM and diluted into 10 ml of pre-warmed phosphate solution to a final concentraion of 25 μm. […] 25 μl of dimethylformaide wa added to the control smample. After 7, 30, 60, 120 and 190 minutes of incugation at 37° C., a 1 ml aliquot was withdraqwn, tranferred into an Eppendorf tube, and centrifugted at 14,000 g for 2 minutes at room temperature to pellet the precipitate. The soluble fraction was then transferred to a semi-microcuvette (polymethyacrylate, VER), and its absoprtion was measured at 360 nm against a blank of the test compound in buffer.
The reactions were allowed to proceed for 2 hours in a 37° C. waterbath. After incubation, the polymer was pelleted as described above and the absorption (360 nm) of each soluble fraction was measured against a blank containing the drug alone in buffer. The IC50 values were determined by nonlinear regression analysis of the dose-response curves of percent inhibition of heme polymerization vs. drug concentration.

[3] = Table 3, 25 μM heme, pH 5.2, 37° C., 2 hours, average of at least two determinations, read-out: IC50, μM in vitro heme polymerization
[4] = Plasmodium falciparum, D6, read-out: IC50 μM, P. falciparum clone D6
[5] = Plasmodium falciparum, D6, Table 4, average of 2 experiments in triplicate, 72 hour assay, read-out: IC50 μM* P. falciparum D6
[6] = Plasmodium falciparum, D6, Table 3, read-out: IC50 μM, P. falciparum clone D6

Row | IC50 [2, 3] [µM] | IC50 [1, 6] [µM] | Structure (SMILES) | other results
1 | – | – | CCN(CC)CCCC(C)Nc1ccnc2cc(Cl)ccc12 (centres unmarked) [Chloroquine, reference compound] | IC50 ([1]; Plasmodium falciparum, D6, read-out: IC50, anti-malarial activity): ~0.04 µM
2 | – | – | CCN(CC)CCOc1cccc2c(=O)c3cccc(OCCN(CC)CC)c3oc12 [45-DEAE-X, 4,5-bis-β-(N,N-diethylamino)ethoxy-xanthone] | IC50 [1, 5]: 2.8 µM
3 | – | – | CCN(CC)CCCCCOc1cccc2c(=O)c3cccc(OCCCCCN(CC)CC)c3oc12 | IC50 ([1]; Plasmodium falciparum, D6, Table 4, cells printed in nM, 72 hour assay, read-out: IC50 μM* P. falciparum D6): 0.575 µM
4 | – | – | CCN(CC)c1ccc2c(=O)c3ccc(N(CC)CC)cc3oc2c1 [36-DEAX, 3,6-bis-N,N-diethylamino-xanthone] | IC50 [1, 5]: 20 µM; IC50 ([1]; Plasmodium falciparum, P. falciparum D6, read-out: IC50, anti-malarial activity): ~20 µM
5 | > 1000 | 75 | O=c1c2ccccc2oc2cc(O)cc(O)c12 [1,3-dihydroxyxanthone] | –
6 | 17 | 40 | O=c1c2ccccc2oc2c(O)c(O)c(O)cc12 [2,3,4-trihydroxyxanthone] | IC50 ([2]; text b143, read-out: IC50, inhibition of heme polymerization): 16.5 µM
7 | – | – | CCN(CC)CCCCCCCCOc1ccc2c(=O)c3ccc(OCCCCCCCCN(CC)CC)cc3oc2c1 [36-DEAOctyloxy-X, 3,6-bis-(N,N-diethylamino)octyloxy-xanthone] | IC50 ([1]; Table 4, average of 2 experiments in triplicate, 72 hour assay, read-out: IC50 μM* P. falciparum D6): 0.43 µM
8 | 2.5 | 5 | O=c1c2ccc(O)c(O)c2oc2c(O)c(O)ccc12 [3,4,5,6-tetrahydroxyxanthone] | –
9 | – | – | O=c1c2ccccc2oc2ccccc12 [Xanthone] | inhibitory activity in heme polymerization assay [2]: did not exhibit any inhibitory activity; IC50 ([1]; Plasmodium falciparum, D6, read-out: IC50, μM vs. Plasmodium): > 10 µM
10 | 14 | 16 | O=c1c2cccc(O)c2oc2c(O)cccc12 [4,5-dihydroxyxanthone] | –
11 | > 1000 | > 100 | COc1cc2c(=O)c3ccc(OC)c(OC)c3oc2c(OC)c1OC [2,3,4,5,6-pentamethoxyxanthone] | inhibitory activity in heme polymerization assay [2]: inactive
12 | – | – | CCN(CC)CCCCCOc1ccc2c(=O)c3ccccc3oc2c1 [3-(N,N-diethylamino)amyloxy-xanthone] | IC50 [1, 5]: 2.5 µM
13 | 9 | 1 | O=c1c2cc(O)c(O)c(O)c2oc2cc(O)cc(O)c12 [1,3,5,6,7-pentahydroxyxanthone] | –

Row | Structure (SMILES) | IC50 [2, 3] [µM] | IC50 [1, 6] [µM] | other results
14 | O=c1c2ccccc2oc2cc(O)ccc12 [3-hydroxyxanthone] | > 1000 | – | IC50 [1, 4]: > 100 µM
15 | O=c1c2ccccc2oc2ccc(O)cc12 [2-hydroxyxanthone] | > 1000 | – | IC50 [1, 4]: 50 µM
16 | O=c1c2ccc(O)cc2oc2cc(O)ccc12 [3,6-dihydroxyxanthone] | > 500 | – | IC50 [1, 4]: > 100 µM
17 | CC(=O)Oc1cc2c(=O)c3ccc(OC(C)=O)c(OC(C)=O)c3oc2c(OC(C)=O)c1OC(C)=O [2,3,4,5,6-pentaacetoxyxanthone] | > 1000 | 0.075 | inhibitory activity in heme polymerization assay [2]: inactive
